Reference: US8486651B2, “Method for treating a disorder associated with Eya dysregulation by modulating Eya phosphatase activity” (Children's Hospital Medical Center, priority 2008, dated 2013)
One block for each compound: values may come before it.

Experiments:
Eya = Eya phosphatase activity pNPP screen, plate controls; format: biochemical; conditions: plate control
Method: Phosphatase Activity Assay. Phosphatase activity of Eya is measured using the p-nitrophenyl phosphate (pNPP) assay. In this assay, reaction mixtures of approximately 60 uL in 20 mM MES (pH 5.5), various concentrations of pNPP and cations are pre-equilibrated at 30° C. for 10 minutes. The assay is initiated by the addition of 0.3 ug of enzyme in 20 mM Tris (pH 8.0) and 150 mM NaCl. The reaction mixture is incubated for 20 minutes, and then quenched with 100 uL of 0.4 M EDTA, pH 10.0. Release of p-nitrophenol (pNP) is monitored by measuring absorbance at a wavelength of 410 (A410) and extrapolating the values into the Michaelis-Menten equation using SIGMAPLOT (SPSS Science, Chicago, Ill.). pNP release can be plotted as a function of time when various enzyme concentrations are used.
The protocol is substantially that described in references 4, 17 and 18. Eya phosphatase activity is measured using the model chromogenic substrate p-nitro-phenylphosphate (pNPP) as described. […] To ensure data quality and assay robustness, the Z value is used. The Z value is based on the difference between the signal of the positive control (ie, no test compound) and that of the negative control (no Eya protein or polypeptide). The Z value incorporates the standard deviation of each signal. A Z value of 1.0 is considered perfect, and Z values above 0.5 are generally considered ideal for HTS. […] In both the primary and secondary screen, every plate also contains three additional controls: 20 mM Na-o-vanadate (which inhibits Eya), 20 mM EDTA (which inhibits 100% of Eya activity) and 50 mM NaF (which inhibits Eya).

human SIX6 = biological target: T1, human SIX6 (UniProt O95475)
T1 sequence: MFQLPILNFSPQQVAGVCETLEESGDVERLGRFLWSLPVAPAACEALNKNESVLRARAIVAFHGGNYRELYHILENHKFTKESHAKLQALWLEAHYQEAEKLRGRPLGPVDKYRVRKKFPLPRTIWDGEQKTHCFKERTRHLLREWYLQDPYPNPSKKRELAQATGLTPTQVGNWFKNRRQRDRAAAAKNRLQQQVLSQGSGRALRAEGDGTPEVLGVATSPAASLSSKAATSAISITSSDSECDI

[1] = system: T2, histone H2AX C-terminus peptide (KKATQASQEpY)
T2 sequence: KKATQASQEY

[2] = system: T3, Six2 fragment derived from mouse Six protein (SEQ ID NO. 6)
T3 sequence: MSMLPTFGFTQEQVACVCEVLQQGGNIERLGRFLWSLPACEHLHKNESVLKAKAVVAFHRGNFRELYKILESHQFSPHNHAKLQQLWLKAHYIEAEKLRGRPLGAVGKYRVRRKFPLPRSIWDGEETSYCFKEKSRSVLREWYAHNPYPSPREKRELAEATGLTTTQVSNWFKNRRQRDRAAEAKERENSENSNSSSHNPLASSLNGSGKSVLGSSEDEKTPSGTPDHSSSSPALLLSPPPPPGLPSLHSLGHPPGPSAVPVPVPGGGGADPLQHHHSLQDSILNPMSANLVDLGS

- inhibition of Eya activity (Eya; 20 mM EDTA): 100%
Compound: O=C(O)CN(CCN(CC(=O)O)CC(=O)O)CC(=O)O [EDTA]

Compound: [F-].[Na+] [NaF]
- inhibition of Eya (Eya; 50 mM NaF): inhibits Eya

Compound: [Na+].[Na+].[Na+].[O]=[V]([O-])([O-])[O-] [Na-o-vanadate]
- inhibition of Eya (Eya; 20 mM Na-o-vanadate): inhibits Eya

Compound: Full-length murine Eya3
- kcat of Eya3 (dephosphorylation of the H2AX-pY peptide, malachite-green type phosphate release), with stoichiometric SIX6 (human SIX6): The interaction with these SIX proteins increases the kcat of Eya3, while the Km values remain relatively similar.
- catalytic rate of dephosphorylation of the tyrosine-phosphorylated H2AX peptide [1]: The ability of Eya3 to dephosphorylate a tyrosine-phosphorylated peptide derived from H2AX was monitored in the presence or absence of stoichiometric amounts of either SIX2 or SIX6. The catalytic rate at increasing concentrations of H2AX-pY peptide was measured.
- kcat of Eya3 (dephosphorylation of the H2AX-pY peptide, malachite-green type phosphate release), with stoichiometric SIX2 [2]: The interaction with these SIX proteins increases the kcat of Eya3, while the Km values remain relatively similar.
